According to patent publication US20040235784A1, “Combination preparations of 3-n-formylhydroxylaminopropyl phosphonic acid derivatives or 3-n-acetylhydroxylaminopropyl phosphonic acid derivatives combined with specific pharmaceutical active agents” (priority 2000, published 2004):

Tested on: Plasmodium falciparum strains Dd2, 3D7 and HB3
Assay: Sensitivity of Plasmodium falciparum to fosmidomycin in combination with different compounds, semi-automatic test by [3H]-hypoxanthin incorporation into parasite DNA
Assay type: cell-based
Conditions: drug in combination with fosmidomycin, sum FIC <1 synergism, >1 antagonism, =1 addition
Protocol: The IC50-values of fosmidomycin and the respective combination partner were determined for the single compounds and in different ratios of mixture on microtitreplates. The results were defined as sum of fractional inhibitory concentration (sum fractional inhibitory concentration, FIC):
sum FIC=IC50 of fosmidomycin in mixture/IC50 of fosmidomycin alone+IC50 of the combination partners in mixture/IC50 of combination partner alone
Sum FIC-values <1 represent synergism, values >1 antargonism and values=1 addition.

SMILES	sum FIC (P. falciparum strain 3D7)	sum FIC (P. falciparum strain Dd2)	sum FIC (P. falciparum strain HB3)
CC[C@H]1OC(=O)[C@H](C)[C@@H](O[C@H]2C[C@@](C)(OC)[C@@H](O)[C@H](C)O2)[C@H](C)[C@@H](O[C@@H]2O[C@H](C)C[C@H](N(C)C)[C@H]2O)[C@](C)(O)C[C@@H](C)CN(C)[C@H](C)[C@@H](O)[C@]1(C)O [azithromycin]	0.74	0.86	0.85
CCCCN(CCCC)CC(O)c1cc(Cl)cc2c1-c1ccc(Cl)cc1/C2=C/c1ccc(Cl)cc1 (stereo not drawn) [lumefantrin]	1.21	1.20	1.08
